Reference: PubChem BioAssay (NCI)
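Cultured in 96-well plates, cells were exposed to test compound for 48 hours across five concentrations. TGI: concentration producing complete growth inhibition.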 Where a SMILES comes first, the peptide text is derived from it. [ ]: non-standard residue; d: D form. The star is where a group is joined. NMeF = CN[CH](Cc1ccccc1)C(=O)O; NMeV = CN[CH](C(=O)O)C(C)C; Boc = CC(C)(C)OC(=O)*

Tests used:
Assay in all cases: DTP human tumour cell line panel, 48 h
[1] = system: DU-145 prostate
[2] = system: OVCAR-3 ovarian
[3] = system: NCI-H226 lung
[4] = system: HCT-116 colon
[5] = system: HL-60(TB) leukemia
[6] = system: A498 renal
[7] = system: HT29 colon
[8] = system: UO-31 renal
[9] = system: UACC-62 melanoma
[10] = system: A549 NSCLC

SMILES | TGI [1] | TGI [2] | TGI [3] | TGI [4] | TGI [5] | TGI [6] | TGI [7] | TGI [8] | TGI [9] | TGI [10]
O=C1/C(=N/O)Cc2c(Br)ccc(Br)c21 | > 100 µM | 70.3 µM | > 100 µM | > 100 µM | 76.3 µM | > 100 µM | > 100 µM | > 100 µM | – | –
CSc1ncnc2c1ncn2C1CC(Oc2ccc(C)cc2)C(COc2ccc(C)cc2)O1 (stereo not given) | > 100 µM | > 100 µM | > 100 µM | > 100 µM | > 100 µM | > 100 µM | > 100 µM | – | > 100 µM | > 100 µM
Cc1ccc(N=Nc2c(O)ccc3cc(S(=O)(=O)O)cc(S(=O)(=O)O)c23)cc1 | > 100 µM | > 100 µM | > 100 µM | > 100 µM | > 100 µM | > 100 µM | – | > 100 µM | > 100 µM | > 100 µM
COc1ccc(C2OC[C@H]3O[C@@H](OCc4ccccc4)[C@H](O)[C@@H](O)[C@@H]3O2)cc1 (stereo not given in full) | > 100 µM | > 100 µM | > 100 µM | > 100 µM | – | > 100 µM | > 100 µM | > 100 µM | > 100 µM | > 100 µM
O=C(O)c1ccc([N+](=O)[O-])c2cc3cnccc3nc12 | > 100 µM | 36.4 µM | 61.6 µM | 33 µM | > 100 µM | > 100 µM | 57.3 µM | 43.7 µM | 24.8 µM | –
CCOC(=O)N/N=C(/N)c1cccc([N+](=O)[O-])c1 | > 100 µM | > 100 µM | – | > 100 µM | > 100 µM | > 100 µM | > 100 µM | > 100 µM | > 100 µM | > 100 µM
COC1=C(OC)C(=O)C(Cc2c(C)nc3sc(C)cn23)=C(C)C1=O | 48 µM | 35.6 µM | – | 49.9 µM | 29.8 µM | > 100 µM | 40.6 µM | 31.6 µM | 27.4 µM | 49.5 µM
Cc1ccc(-c2c(C#N)c(-c3ccc(Cl)cc3)c(C#N)c(=O)n2NS(=O)(=O)c2ccc(C)cc2)cc1 | – | – | > 100 µM | 50.6 µM | – | 86.3 µM | > 100 µM | – | 45 µM | 82.3 µM
CC1OC(OC2C(O[C@H]3CC[C@@]4(C)C(=CC[C@H]5[C@@H]6C[C@@H]7O[C@]8(CC[C@@H](CO)CO8)[C@@H](C)[C@@H]7[C@@]6(C)CC[C@@H]54)C3)OC(CO)C(O)C2OC2OC(CO)C(O)C(O)C2O)C(O)C(O)C1O (stereo not given in full) | 3.34 µM | – | 3.79 µM | 3.02 µM | 2.8 µM | 3.82 µM | 4.91 µM | 5.46 µM | 3.23 µM | 4.48 µM
Oc1ccc(-c2nc(-c3cccnc3)c(-c3ccc(Cl)cc3)[nH]2)cc1 | 29.4 µM | 28 µM | 33.3 µM | 31.6 µM | 36.7 µM | – | 28.4 µM | 22.9 µM | 25.9 µM | 30.1 µM
CN1CCC(O)(C(C)(C)C)CC1 | > 100 µM | > 100 µM | > 100 µM | > 100 µM | > 100 µM | – | > 100 µM | > 100 µM | > 100 µM | > 100 µM
CCOC(=O)CC1(C(=O)OCC)c2[nH]c3ccccc3c2CCN1Cc1ccccc1 (stereo not given) | – | 27.4 µM | 35.5 µM | 31.8 µM | 62.5 µM | 35.9 µM | 29.8 µM | 64.1 µM | 32.2 µM | 40.3 µM
CC(C)C(NC(=O)OC(C)(C)C)C(=O)N(C)C(Cc1ccccc1)C(=O)N(C)C(C(=O)O)C(C)C (stereo not drawn) (Boc-Val-[NMeF]-[NMeV]-OH; configuration not given here) | – | > 100 µM | > 100 µM | > 100 µM | > 100 µM | – | > 100 µM | > 100 µM | > 100 µM | > 100 µM
N=C(N)c1ccc(C(NC(=O)CNS(=O)(=O)c2ccc3ccccc3c2)P(=O)(Oc2ccccc2)Oc2ccccc2)cc1 (stereo not given) | > 100 µM | > 100 µM | 38.8 µM | > 100 µM | > 100 µM | – | > 100 µM | > 100 µM | > 100 µM | > 100 µM
C(=Nc1ccc(-c2nc3ccccc3[nH]2)cc1)c1cccs1 | > 100 µM | > 100 µM | > 100 µM | > 100 µM | > 100 µM | > 100 µM | > 100 µM | > 100 µM | – | > 100 µM
C1=CC2SSSC2C1 (stereo not given) | – | > 100 µM | > 100 µM | > 100 µM | > 100 µM | – | > 100 µM | > 100 µM | > 100 µM | > 100 µM
COc1ccccc1/C=C1\SC(=S)N(/C=C2\C(=O)Oc3ccccc3C2=O)C1=O | > 100 µM | 44.6 µM | > 100 µM | > 100 µM | – | – | > 100 µM | 83.2 µM | 64 µM | > 100 µM
NC(N)=N/N=C/c1c[nH]c2ccccc12 | – | > 100 µM | > 100 µM | – | > 100 µM | – | > 100 µM | > 100 µM | > 100 µM | > 100 µM
Cn1c2c(c3ccccc31)CC1c3c(c4ccccc4n3C)CC21 (stereo not given) | > 100 µM | > 100 µM | > 100 µM | – | > 100 µM | – | > 100 µM | > 100 µM | > 100 µM | > 100 µM
Cc1ccc(/C=C2\CCCc3ccccc3C2=O)cc1 | > 100 µM | 50.8 µM | 36.1 µM | 29.1 µM | 30.7 µM | – | 18.5 µM | > 100 µM | 29.2 µM | > 100 µM
O=P(Nc1ccc(Cl)cc1)(Oc1ccccc1)N(CCCl)CCCl (stereo not given) | – | > 100 µM | > 100 µM | > 100 µM | – | > 100 µM | > 100 µM | > 100 µM | > 100 µM | > 100 µM
COCN(CCC1=CCCCC1)C(=O)OC | > 100 µM | > 100 µM | – | > 100 µM | – | > 100 µM | > 100 µM | > 100 µM | > 100 µM | > 100 µM
CC12C(=O)CC(CC1=O)C2(C)C | > 100 µM | > 100 µM | > 100 µM | > 100 µM | > 100 µM | – | > 100 µM | > 100 µM | > 100 µM | > 100 µM
